From ChEMBL document CHEMBL3751688, “Synthesis, in vitro antimycobacterial evaluation and docking studies of some new 5,6,7,8-tetrahydropyrido[4',3':4,5]thieno[2,3-d]pyrimidin-4(3H)-one schiff bases” (Bioorg Med Chem Lett, 2016)
≈ marks a conversion by molar mass, not a printed value.

Tests used:
[1] = tested on: Mycobacterium tuberculosis; assay: Antibacterial activity against Mycobacterium tuberculosis; format: functional
[2] = tested on: Mycobacterium tuberculosis; assay: Antimycobacterial activity against Mycobacterium tuberculosis H37Rv at 224 uM after 3 days by luciferase reporter phage assay; format: functional; conditions: 72 h
Bacillus subtilis = assay: Antibacterial activity against Bacillus subtilis MTCC 441 after 24 hrs by broth microdilution technique; format: functional; conditions: MTCC 441, 24 h
[3] = tested on: Mycobacterium tuberculosis; assay: Antimycobacterial activity against Mycobacterium tuberculosis H37Rv at 455 uM after 3 days by luciferase reporter phage assay; format: functional; conditions: 72 h
Staphylococcus aureus = assay: Antibacterial activity against Staphylococcus aureus MTCC 96 after 24 hrs by broth microdilution technique; format: functional; conditions: MTCC 96, 24 h
[4] = tested on: Mycobacterium tuberculosis; assay: Antimycobacterial activity against Mycobacterium tuberculosis H37Rv after 14 days by broth microdilution method; format: functional; conditions: 336 h
Klebsiella pneumoniae = assay: Antibacterial activity against Klebsiella pneumoniae MTCC 109 after 24 hrs by broth microdilution technique; format: functional; conditions: MTCC 109, 24 h
[5] = tested on: Mycobacterium tuberculosis; assay: Antimycobacterial activity against Mycobacterium tuberculosis H37Rv at 113 uM after 3 days by luciferase reporter phage assay; format: functional; conditions: 72 h
Escherichia coli = assay: Antibacterial activity against Escherichia coli MTCC 443 after 24 hrs by broth microdilution technique; format: functional; conditions: MTCC 443, 24 h
[6] = tested on: Mycobacterium tuberculosis; assay: Antimycobacterial activity against Mycobacterium tuberculosis H37Rv after 21 days by broth microdilution method; format: functional; conditions: 504 h
Pantothenate synthetase = biological target: T1, Pantothenate synthetase (Mycobacterium tuberculosis, UniProt P9WIL5); assay: Inhibition of Mycobacterium tuberculosis pantothenate synthetase
T1 sequence (P9WIL5 whole entry): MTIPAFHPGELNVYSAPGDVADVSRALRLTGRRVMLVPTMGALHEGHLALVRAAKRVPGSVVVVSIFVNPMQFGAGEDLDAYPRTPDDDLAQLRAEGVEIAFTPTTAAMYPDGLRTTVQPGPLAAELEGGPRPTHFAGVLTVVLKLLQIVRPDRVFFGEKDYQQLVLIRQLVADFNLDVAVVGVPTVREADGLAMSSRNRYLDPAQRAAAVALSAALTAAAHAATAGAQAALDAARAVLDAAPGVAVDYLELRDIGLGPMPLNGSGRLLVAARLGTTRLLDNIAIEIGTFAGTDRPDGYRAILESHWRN

[7] = tested on: Mycobacterium tuberculosis; assay: Antimycobacterial activity against Mycobacterium tuberculosis H37Rv at 235 uM after 3 days by luciferase reporter phage assay; format: functional; conditions: 72 h
[8] = tested on: Mycobacterium tuberculosis; assay: Antimycobacterial activity against Mycobacterium tuberculosis H37Rv at 470 uM after 3 days by luciferase reporter phage assay; format: functional; conditions: 72 h
[9] = tested on: Mycobacterium tuberculosis; assay: Antimycobacterial activity against Mycobacterium tuberculosis H37Rv at 117 uM after 3 days by luciferase reporter phage assay; format: functional; conditions: 72 h
[10] = tested on: Mycobacterium tuberculosis; assay: Antimycobacterial activity against Mycobacterium tuberculosis H37Rv at 111 uM after 3 days by luciferase reporter phage assay; format: functional; conditions: 72 h
[11] = tested on: Mycobacterium tuberculosis; assay: Antimycobacterial activity against Mycobacterium tuberculosis H37Rv at 223 uM after 3 days by luciferase reporter phage assay; format: functional; conditions: 72 h
[12] = tested on: Mycobacterium tuberculosis; assay: Antimycobacterial activity against Mycobacterium tuberculosis H37Rv at 446 uM after 3 days by luciferase reporter phage assay; format: functional; conditions: 72 h
[13] = tested on: Mycobacterium tuberculosis; assay: Antimycobacterial activity against Mycobacterium tuberculosis H37Rv at 116 uM after 3 days by luciferase reporter phage assay; format: functional; conditions: 72 h
[14] = tested on: Mycobacterium tuberculosis; assay: Antimycobacterial activity against Mycobacterium tuberculosis H37Rv at 232 uM after 3 days by luciferase reporter phage assay; format: functional; conditions: 72 h
[15] = tested on: Mycobacterium tuberculosis; assay: Antimycobacterial activity against Mycobacterium tuberculosis H37Rv at 465 uM after 3 days by luciferase reporter phage assay; format: functional; conditions: 72 h
[16] = tested on: Mycobacterium tuberculosis; assay: Antimycobacterial activity against Mycobacterium tuberculosis H37Rv at 492 uM after 3 days by luciferase reporter phage assay; format: functional; conditions: 72 h
[17] = tested on: Mycobacterium tuberculosis; assay: Antimycobacterial activity against Mycobacterium tuberculosis H37Rv at 246 uM after 3 days by luciferase reporter phage assay; format: functional; conditions: 72 h
[18] = tested on: Mycobacterium tuberculosis; assay: Antimycobacterial activity against Mycobacterium tuberculosis H37Rv at 123 uM after 3 days by luciferase reporter phage assay; format: functional; conditions: 72 h

Row | SMILES | MIC (Bacillus subtilis) [µM] | MIC (Staphylococcus aureus) [µM] | MIC [4] [µM] | MIC (Klebsiella pneumoniae) [µM] | MIC (Escherichia coli) [µM] | MIC [6] [µM] | other results
1 | Cc1nc2ccccn2c1C(=O)N/N=C/c1ccc(C(F)(F)F)cc1 | – | – | – | – | – | – | MIC [1]: 9.01 µM (≈ 3.12 µg/mL)
2 | Cc1nc2sc3c(c2c(=O)n1/N=C/c1ccc(C#N)cc1)CCN(Cc1ccccc1)C3 | 34 (≈ 14.9 µg/mL) | 34 (≈ 14.9 µg/mL) | 20 (≈ 8.79 µg/mL) | 70 (≈ 30.8 µg/mL) | 15 (≈ 6.59 µg/mL) | 20 (≈ 8.79 µg/mL) | inhibition at 224 µM [2]: 6.5%; inhibition at 455 µM [3]: 9.8%; inhibition at 113 µM [5]: 0%
3 | Cc1nc2sc3c(c2c(=O)n1/N=C/c1ccccc1)CCN(Cc1ccccc1)C3 | 74 (≈ 30.7 µg/mL) | 74 (≈ 30.7 µg/mL) | – | 149 (≈ 61.8 µg/mL) | 74 (≈ 30.7 µg/mL) | – | –
4 | O=c1c2c3c(sc2ncn1/N=C/c1ccccc1[N+](=O)[O-])CN(Cc1ccccc1)CC3 | 139 (≈ 61.9 µg/mL) | 139 (≈ 61.9 µg/mL) | – | 139 (≈ 61.9 µg/mL) | 139 (≈ 61.9 µg/mL) | – | –
5 | NC(=O)c1c(NC(=O)c2ccc([N+](=O)[O-])s2)sc2c1CCN(Cc1ccccc1)C2 | – | – | – | – | – | – | IC50 (Pantothenate synthetase): 1.13 µM
6 | Cc1nc2sc3c(c2c(=O)n1/N=C/c1cccs1)CCN(Cc1ccccc1)C3 | 297 (≈ 125 µg/mL) | 297 (≈ 125 µg/mL) | – | 297 (≈ 125 µg/mL) | 297 (≈ 125 µg/mL) | – | –
7 | O=c1c2c3c(sc2ncn1/N=C/c1ccc(O)cc1)CN(Cc1ccccc1)CC3 | 149 (≈ 62.1 µg/mL) | 149 (≈ 62.1 µg/mL) | – | 149 (≈ 62.1 µg/mL) | 149 (≈ 62.1 µg/mL) | – | –
8 | O=c1c2c3c(sc2ncn1/N=C/c1ccc(F)cc1)CN(Cc1ccccc1)CC3 | 73 (≈ 30.6 µg/mL) | 73 (≈ 30.6 µg/mL) | – | 147 (≈ 61.5 µg/mL) | 73 (≈ 30.6 µg/mL) | – | –
9 | Cc1nc2sc3c(c2c(=O)n1/N=C/c1ccccc1[N+](=O)[O-])CCN(Cc1ccccc1)C3 | 135 (≈ 62 µg/mL) | 135 (≈ 62 µg/mL) | – | 135 (≈ 62 µg/mL) | 135 (≈ 62 µg/mL) | – | –
10 | N#Cc1ccc(/C=N/n2cnc3sc4c(c3c2=O)CCN(Cc2ccccc2)C4)cc1 | 35 (≈ 14.9 µg/mL) | 35 (≈ 14.9 µg/mL) | 9 (≈ 3.83 µg/mL) | 72 (≈ 30.6 µg/mL) | 16 (≈ 6.81 µg/mL) | 9 (≈ 3.83 µg/mL) | inhibition at 235 µM [7]: 9.7%; inhibition at 470 µM [8]: 69.9%; inhibition at 117 µM [9]: 0%
11 | O=c1c2c3c(sc2ncn1/N=C/c1ccc(Cl)cc1)CN(Cc1ccccc1)CC3 | 34 (≈ 14.8 µg/mL) | 34 (≈ 14.8 µg/mL) | 20 (≈ 8.7 µg/mL) | 71 (≈ 30.9 µg/mL) | 16 (≈ 6.96 µg/mL) | 20 (≈ 8.7 µg/mL) | –
12 | COc1cc(/C=N/n2c(C)nc3sc4c(c3c2=O)CCN(Cc2ccccc2)C4)cc(OC)c1OC | 248 (≈ 125 µg/mL) | 248 (≈ 125 µg/mL) | – | 248 (≈ 125 µg/mL) | 248 (≈ 125 µg/mL) | – | –
13 | COc1ccc(/C=N/n2c(C)nc3sc4c(c3c2=O)CCN(Cc2ccccc2)C4)cc1 | 33 (≈ 14.7 µg/mL) | 69 (≈ 30.7 µg/mL) | – | 69 (≈ 30.7 µg/mL) | 33 (≈ 14.7 µg/mL) | – | –
14 | O=c1c2c3c(sc2ncn1/N=C/c1ccccc1)CN(Cc1ccccc1)CC3 | 77 (≈ 30.8 µg/mL) | 77 (≈ 30.8 µg/mL) | – | 155 (≈ 62.1 µg/mL) | 77 (≈ 30.8 µg/mL) | – | –
15 | Cc1nc2sc3c(c2c(=O)n1/N=C/c1ccc(O)cc1)CCN(Cc1ccccc1)C3 | 144 (≈ 62 µg/mL) | 144 (≈ 62 µg/mL) | – | 144 (≈ 62 µg/mL) | 144 (≈ 62 µg/mL) | – | –
16 | Cc1nc2sc3c(c2c(=O)n1/N=C/c1ccc(Cl)cc1)CCN(Cc1ccccc1)C3 | 33 (≈ 14.8 µg/mL) | 33 (≈ 14.8 µg/mL) | 8 (≈ 3.59 µg/mL) | 69 (≈ 31 µg/mL) | 15 (≈ 6.73 µg/mL) | 8 (≈ 3.59 µg/mL) | inhibition at 111 µM [10]: 29.6%; inhibition at 223 µM [11]: 40.8%; inhibition at 446 µM [12]: 99.8%
17 | COc1ccc(/C=N/n2cnc3sc4c(c3c2=O)CCN(Cc2ccccc2)C4)cc1 | 34 (≈ 14.6 µg/mL) | 34 (≈ 14.6 µg/mL) | 20 (≈ 8.61 µg/mL) | 72 (≈ 31 µg/mL) | 16 (≈ 6.89 µg/mL) | 20 (≈ 8.61 µg/mL) | inhibition at 116 µM [13]: 0%; inhibition at 232 µM [14]: 15%; inhibition at 465 µM [15]: 16.9%
18 | Cc1nc2sc3c(c2c(=O)n1/N=C/c1ccc(F)cc1)CCN(Cc1ccccc1)C3 | 71 (≈ 30.7 µg/mL) | 71 (≈ 30.7 µg/mL) | – | 71 (≈ 30.7 µg/mL) | 71 (≈ 30.7 µg/mL) | – | –
19 | Cc1nc2sc3c(c2c(=O)n1/N=C/c1ccc(Cl)cc1Cl)CCN(Cc1ccccc1)C3 | 15 (≈ 7.25 µg/mL) | 64 (≈ 30.9 µg/mL) | – | 64 (≈ 30.9 µg/mL) | 64 (≈ 30.9 µg/mL) | – | –
20 | O=c1c2c3c(sc2ncn1/N=C/c1ccc(Cl)cc1Cl)CN(Cc1ccccc1)CC3 | 32 (≈ 15 µg/mL) | 66 (≈ 31 µg/mL) | – | 66 (≈ 31 µg/mL) | 66 (≈ 31 µg/mL) | – | –
21 | Cc1nc2sc3c(c2c(=O)n1/N=C/c1ccco1)CCN(Cc1ccccc1)C3 | 309 (≈ 125 µg/mL) | 309 (≈ 125 µg/mL) | – | 153 (≈ 61.9 µg/mL) | 309 (≈ 125 µg/mL) | – | –
22 | O=c1c2c3c(sc2ncn1/N=C/c1cccs1)CN(Cc1ccccc1)CC3 | 150 (≈ 61 µg/mL) | 36 (≈ 14.6 µg/mL) | 22 (≈ 8.94 µg/mL) | 150 (≈ 61 µg/mL) | 150 (≈ 61 µg/mL) | 22 (≈ 8.94 µg/mL) | inhibition at 492 µM [16]: 0%; inhibition at 246 µM [17]: 0%; inhibition at 123 µM [18]: 0%
23 | COc1cc(/C=N/n2cnc3sc4c(c3c2=O)CCN(Cc2ccccc2)C4)cc(OC)c1OC | 255 (≈ 125 µg/mL) | 255 (≈ 125 µg/mL) | – | 255 (≈ 125 µg/mL) | 255 (≈ 125 µg/mL) | – | –
24 | O=c1c2c3c(sc2ncn1/N=C/c1ccco1)CN(Cc1ccccc1)CC3 | 158 (≈ 61.7 µg/mL) | 158 (≈ 61.7 µg/mL) | – | 158 (≈ 61.7 µg/mL) | 158 (≈ 61.7 µg/mL) | – | –
25 | CC[C@@H](CO)NCCN[C@@H](CC)CO [ETHAMBUTOL] | – | – | 4 (≈ 0.817 µg/mL) | – | – | 4 (≈ 0.817 µg/mL) | –
26 | NNC(=O)c1ccncc1 [ISONIAZID] | – | – | 0.28 (≈ 0.0384 µg/mL) | – | – | 0.28 (≈ 0.0384 µg/mL) | –
27 | CO[C@H]1/C=C/O[C@@]2(C)Oc3c(C)c(O)c4c(O)c(c(/C=N/N5CCN(C)CC5)c(O)c4c3C2=O)NC(=O)/C(C)=C\C=C\[C@H](C)[C@H](O)[C@@H](C)[C@@H](O)[C@@H](C)[C@H](OC(C)=O)[C@@H]1C [RIFAMPIN] | – | – | 0.09 (≈ 0.0741 µg/mL) | – | – | 0.09 (≈ 0.0741 µg/mL) | –
28 | CN[C@@H]1[C@H](O[C@H]2[C@H](O[C@H]3[C@H](O)[C@@H](O)[C@H](N=C(N)N)[C@@H](O)[C@@H]3N=C(N)N)O[C@@H](C)[C@]2(O)C=O)O[C@@H](CO)[C@H](O)[C@H]1O [STREPTOMYCIN] | < 1 | < 1 | 2 (≈ 1.16 µg/mL) | < 1 | < 1 | 2 (≈ 1.16 µg/mL) | –
